Data reported in EP1857556A1, “Genetically engineered Pseudomonas fluorescens strains as biosensor for trehalose detection and quantification in a sample” (INSTITUT NATIONAL DE LA RECHERCHE AGRONOMIQUE (INRA), priority 2006, dated 2007).

Legend:
Pyt 5 = assay: visual assessment of β-galactosidase activity (blue color intensity) on X-gal buffered CAA medium, mutant Pyt 5; format: cell-based, P. fluorescens ATCC 17400; set-up: β-galactosidase activities: key: -: no induction; (+): faintish induction; +: weak induction; ++: highly induction; +++: extremely strong induction
Source text: (§1) So, Pyt 6 was chosen as a good candidate to develop the biosensor test in the further study.
(§2) Table 1. Influence of added sugars in buffered (pH 7) CAA medium for the β-galactosidase activities of P. fluorescens ATCC 17400 derived mutants on visual assessment of blue color intensity

Pyt 6 [1] = assay: visual assessment of β-galactosidase activity (blue color intensity) on X-gal buffered CAA medium, mutant Pyt 6; for β-galactosidase activities: key: -: no induction; (+): faintish induction; +: weak induction; ++: highly induction; +++: extremely strong induction; format: cell-based, P. fluorescens ATCC 17400
Source text: as §1, §2

Pyt 6 [2] = assay: semi-quantitative high-throughput X-Gal colorimetric trehalose assay with Pyt 6; format: cell-based, Pseudomonas fluorescens; details: semi-quantitative method; for visible induction: Pyt 6, sugars (2 %), X-Gal, 18 hours at 27°C
Experimental: For instance, the Inventors have developed a semi-quantitative method of assaying trehalose in a sample. Said method comprises the steps consisting of: • a) contacting the sample with a suspension of Pyt 6, precultured to exponential growth, at OD 600 nm = about 0.1, with a ratio about 1:20 (preferably 10 µl of the sample, optionally diluted, are contacted with 190 µl of the Pyt 6 suspension atOD600nm=0.1); • b) adding about 2 µl X-Gal (20 mg/ml); • c) incubation the mixture during 16-20 hours, preferably18 hours, at 27°C (preferably with agitation at 150 rpm), • c) observing and/or measuring the blue coloration elicited by X-Gal processing; and • d) comparing the blue coloration observed in step c) with that elicited by a standard of trehalose contacted with a suspension of Pyt 6, precultured to exponential growth, at OD 600 nm = about 0.1, with a ratio 1:10 (preferably 10 µl of the standards are contacted with 190 µl of the Pyt 6 suspension at OD 600 nm = 0.1) and X-Gal (2 µl, 20 mg/ml); whereby if the blue coloration observed in step c) is above that of observed with the standard, then the concentration of trehalose in the sample is above trehalose concentration in the standard.
From the knowledge derived from the use of the qualitative and quantitative methods, the inventors have developed a semi-quantitative method that allows a high throughput pre-screening of the presence of trehalose in liquid samples. The invention helps also to the check quickly the quality of controls without trehalose before applying the quantitative method. The semi-quantitative method combines a direct colorimetric observation with the use of the chromogenic X-Gal and the conditions of Pyt 6 culture derived from the quantitative method. The detection limit is 0.5 mM trehalose in 10 µl of the tested liquid sample (biological or other extracts).
This method was carried out according to the following steps : • preculture of Pyt 6 to exponential growth in the BCAA medium at 27°C, • distribution of 190 µl of this Pyt 6 suspension at OD 600 nm = 0.1 in wells of a 96 well microtiter plate , • incorporation of 2 µl X-Gal (20 mg/ml) in each well, • incorporation of 10 µl of a standard range of trehalose (0.1 mM to 2 mM trehalose) or 10 µl of tested samples or 10 µl of pure water or culture medium for the blank control, • incubation during 18 hours at 150 rpm at 27°C, • comparative observation of the intensity of the blue color in wells, • the lower detection limit is 0.5 mM trehalose in the tested sample.

[3] = effect of boiling on trehalose, read out with Pyt 6 luminescence (Figure 8); format: physicochemical; details: boiling of the samples, 5 min at 100°C (Figure 8)
Experimental: The extract derived from 1 g of Ggt mycelium cultured for 7 days were tested. For the positive control, 10 ng of purified β-gal and 1 mM trehalose solution with Pyt 6 were assessed. Results shown are mean values from 3 repeated counting. Error bars indicate standard deviations.
The fungal extraction was performed as follows. Mycelium are pre-cultured (Gaeumannomyces. graminis (Ggt): 5 days on PDA (Potato Dextrose 39 g/L, agar 20 g/L); Laccaria bicolor. (Lb) 10 days on P5 (0.25 g Di NH4 tartrate, 0.5 g KH2PO4, 0.25 g MgSO4 7 H2O, 2.5 g maltose D+, 10 g glucose D+, 0.5 ml thiamine-HCl (100 mg/L), 0.5 ml Kanieltra oligoelement solution (100 ml/L), 10 g agar, 480 ml H2O, adjusted pH to 5.5 with HCl or NaOH). Growing mycelium plugs are explanted to BCAA agar (as defined above) with cellophane membrane or the glass bead/membrane system with liquid BCAA. The cellophane membranes were previously boiled in ultra-pure water + EDTA (372 mg.l-1) during 15 minutes, washed abundantly with ultra-pure water and sterilised by autoclaving twice. […]
Boiling of the fungal extracts is expected to denature endogenous β-gal and therefore avoid interference with trehalose measurement. […] Additionally, it was observed that when Ggt mycelium extract (diluted to 1/10) was boiled, no endogenous β-galactosidase activity was ever detected (Figure 8).

Compound: OC[C@H]1O[C@H](O[C@H]2O[C@H](CO)[C@@H](O)[C@H](O)[C@H]2O)[C@H](O)[C@@H](O)[C@@H]1O [trehalose, Trehalose]
- β-galactosidase activities (Pyt 5; Pyt 5, 10 mM trehalose added to buffered (pH 7) CAA medium): +++
- β-galactosidase activities (Pyt 5; Pyt 5, 10mM trehalose together with 0.2 % glucose): +++
- β-galactosidase activities (Pyt 5; Pyt 5, 10 mM trehalose together with 0.2 % maltose): +++
- β-galactosidase activities (Pyt 5; Pyt 5, 10 mM trehalose together with 0.5% maltose): +++
- β-galactosidase activities (Pyt 5; Pyt 5, 10 mM trehalose together with 2 % glucose): +++
- treA expression (Pyt 5; strain as received under the label Pyt 5 (storage tubes inverted)): specifically induced
- β-galactosidase activities (Pyt 6 [1]; Pyt 6, 10 mM trehalose added to buffered (pH 7) CAA medium): +++
- β-galactosidase activities (Pyt 6 [1]; Pyt 6, 10mM trehalose together with 0.2 % glucose): +++
- β-galactosidase activities (Pyt 6 [1]; Pyt 6, 10 mM trehalose together with 0.2 % maltose): +++
- β-galactosidase activities (Pyt 6 [1]; Pyt 6, 10 mM trehalose together with 0.5% maltose): +++
- β-galactosidase activities (Pyt 6 [1]; Pyt 6, 10 mM trehalose together with 2 % glucose): +++
- treA induction (Pyt 6 [1]; Pyt 6, trehalose 10^-3 M, visual assessment on X-gal medium): treA induction
- detection limit (Pyt 6 [2]; trehalose in 10 µl of the tested liquid sample): 0.5 mM
- stability to boiling [3]: not affected

Compound: OC[C@H]1O[C@H](O[C@H]2[C@H](O)[C@@H](O)C(O)O[C@@H]2CO)[C@H](O)[C@@H](O)[C@@H]1O (mixture of isomers) [maltose]
- β-galactosidase activities (Pyt 5; Pyt 5, 0.2 % maltose added to buffered (pH 7) CAA medium): ++
- β-galactosidase activities (Pyt 5; Pyt 5, 0.5% maltose added to buffered (pH 7) CAA medium): ++
- treA induction (Pyt 5; Pyt 5, visual assessment on X-gal medium): weak induction
- β-galactosidase activities (Pyt 6 [1]; Pyt 6, 0.2 % maltose added to buffered (pH 7) CAA medium): -
- β-galactosidase activities (Pyt 6 [1]; Pyt 6, 0.5% maltose added to buffered (pH 7) CAA medium): -
- treA expression (Pyt 6 [1]; strain as received under the label Pyt 6 (storage tubes inverted)): triggered
- visible induction (Pyt 6 [2]): no visible induction

Compound: O=C(CO)[C@@H](O)[C@H](O)[C@H](O)CO [fructose]
- visible induction (Pyt 6 [2]): no visible induction

Compound: O=C[C@@H](O)[C@H](O)[C@H](O)CO [arabinose]
- visible induction (Pyt 6 [2]): no visible induction

Compound: O=C[C@H](O)[C@@H](O)[C@@H](O)[C@H](O)CO [galactose]
- visible induction (Pyt 6 [2]): no visible induction

Compound: OCC(O)CO [glycerol]
- visible induction (Pyt 6 [2]): no visible induction
